{
  "source": "paper PMC4450258",
  "about": "(Molecular neurobiology, 2014)",
  "molecular_target": "T1, Sterol carrier protein 2 (SCP-2) (Homo sapiens, UniProt P22307)",
  "T1 sequence (P22307 425-547)": "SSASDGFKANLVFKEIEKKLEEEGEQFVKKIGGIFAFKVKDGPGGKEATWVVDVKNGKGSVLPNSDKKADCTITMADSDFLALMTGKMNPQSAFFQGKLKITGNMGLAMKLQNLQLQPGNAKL",
  "format": "biochemical",
  "data": [
    {"smiles": "CCCCC/C=C\\C/C=C\\C/C=C\\C/C=C\\CCCC(=O)NCCO", "note": "[AEA, N-arachidonylethanolamine]", "values": [
      {"measurement": "inhibition of recombinant SCP-2-mediated [14C]cholesterol transfer from SUVs to", "value": "~ 50 µM"}
    ]}
  ]
}
